Test results taken from ChEMBL document CHEMBL1131037, “Structure-based design, synthesis, and biological evaluation of irreversible human rhinovirus 3C protease inhibitors. 2. Peptide structure-activity studies” (J Med Chem, 1998).

Tests used:
[1] = molecular target: T1, Human rhinovirus A protease (Human rhinovirus sp.) (UniProt Q4U254); assay: Binding affinity on human Rhinovirus 3C protease (rhinovirus serotype 14)
T1 sequence (whole entry): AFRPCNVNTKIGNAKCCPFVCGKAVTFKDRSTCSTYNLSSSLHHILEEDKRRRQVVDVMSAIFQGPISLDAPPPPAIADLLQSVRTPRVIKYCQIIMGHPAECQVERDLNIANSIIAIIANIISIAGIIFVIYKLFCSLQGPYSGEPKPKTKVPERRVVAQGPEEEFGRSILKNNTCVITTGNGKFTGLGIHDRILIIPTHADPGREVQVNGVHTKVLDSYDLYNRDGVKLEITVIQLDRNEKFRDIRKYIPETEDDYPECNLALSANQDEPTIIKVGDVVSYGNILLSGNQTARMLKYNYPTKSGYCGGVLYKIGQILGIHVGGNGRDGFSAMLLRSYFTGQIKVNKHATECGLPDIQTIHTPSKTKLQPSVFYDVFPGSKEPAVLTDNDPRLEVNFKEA

[2] = system: rhinovirus B14; assay: Cytotoxic activity against HRV-14 in cell culture; format: functional, rhinovirus 14; settings: Rhinovirus B
[3] = system: rhinovirus B14; assay: Antiviral activity against HRV-14 in cell culture; format: functional, organism-based; settings: Rhinovirus B
[4] = molecular target: T1, Human rhinovirus A protease (Human rhinovirus sp.); assay: Binding affinity on human Rhinovirus 3C protease (rhinovirus serotype 2)
[5] = molecular target: T1, Human rhinovirus A protease (Human rhinovirus sp.); assay: Binding affinity on human Rhinovirus 3C protease (rhinovirus serotype 16)

CCOC(=O)/C=C/[C@H](CCC(N)=O)NC(=O)[C@H](Cc1cccs1)NC(=O)[C@H](CC(C)C)NC(=O)OCc1ccccc1
K obs / 1 [1]: 20000 M⁻¹ s⁻¹
CC50 [2]: > 100 µM
EC50 [3]: 0.56 µM
K obs / 1 [4]: 1800 M⁻¹ s⁻¹
K obs / 1 [5]: 4500 M⁻¹ s⁻¹

CCOC(=O)/C=C/[C@H](CCC(N)=O)NC(=O)[C@H](Cc1ccccc1)NC(=O)[C@@H](NC(=O)OCc1ccccc1)C1CCCCC1
K obs / 1 [1]: 36200 M⁻¹ s⁻¹
CC50 [2]: > 100 µM
EC50 [3]: 1 µM

CCOC(=O)/C=C/[C@H](CCC(N)=O)NC(=O)[C@H](Cc1ccccc1)NC(=O)[C@H](CCSC)NC(=O)OCc1ccccc1
K obs / 1 [1]: 46200 M⁻¹ s⁻¹
CC50 [2]: > 100 µM
EC50 [3]: 1.4 µM

CCOC(=O)/C=C/[C@H](CCC(N)=O)NC(=O)[C@H](Cc1ccc(OC(C)=O)cc1)NC(=O)[C@H](CC(C)C)NC(=O)OCc1ccccc1
K obs / 1 [1]: 1200 M⁻¹ s⁻¹
CC50 [2]: > 320 µM
EC50 [3]: 11 µM

CCOC(=O)/C=C/[C@H](CO)NC(=O)[C@H](Cc1ccccc1)NC(=O)[C@H](CC(C)C)NC(=O)OCc1ccccc1
K obs / 1 [1]: 0 M⁻¹ s⁻¹
CC50 [2]: 190 µM
EC50 [3]: > 190 µM

CCOC(=O)/C=C/[C@H](CCC(N)=O)NC(=O)[C@H](Cc1nccn1C)NC(=O)[C@H](CC(C)C)NC(=O)OCc1ccccc1
K obs / 1 [1]: 8900 M⁻¹ s⁻¹
CC50 [2]: > 320 µM
EC50 [3]: 10 µM

CCOC(=O)/C=C/[C@H](CCC(N)=O)NC(=O)[C@H](Cc1ccccc1)NC(=O)[C@H](CC(C)C)NC(=O)[C@@H](NC(C)=O)C(C)C
K obs / 1 [1]: 26700 M⁻¹ s⁻¹
CC50 [2]: > 100 µM
EC50 [3]: 63 µM

CCOC(=O)/C=C/[C@H](CCC(N)=O)NC(=O)[C@H](Cc1ccccc1)NC(=O)[C@H](CCC(=O)O)NC(=O)OCc1ccccc1
K obs / 1 [1]: 78900 M⁻¹ s⁻¹
CC50 [2]: > 320 µM
EC50 [3]: 5.5 µM

CCOC(=O)/C=C/[C@H](CCC(N)=O)NC(=O)[C@H](Cc1ccccc1)NC(=O)[C@H](CSCc1ccccc1)NC(=O)OCc1ccccc1
K obs / 1 [1]: 97000 M⁻¹ s⁻¹
CC50 [2]: > 100 µM
EC50 [3]: 0.2 µM

CCOC(=O)/C=C/[C@H](CCC(N)=O)NC(=O)[C@H](Cc1ccc(C)cc1)NC(=O)[C@H](CC(C)C)NC(=O)OCc1ccccc1
K obs / 1 [1]: 59400 M⁻¹ s⁻¹
CC50 [2]: > 320 µM
EC50 [3]: 0.18 µM
K obs / 1 [4]: 1400 M⁻¹ s⁻¹
K obs / 1 [5]: 5300 M⁻¹ s⁻¹

CCOC(=O)/C=C/[C@H](CCC(N)=O)NC(=O)C(NC(=O)[C@H](CC(C)C)NC(=O)OCc1ccccc1)[C@H](C)O (stereo partly specified)
K obs / 1 [1]: 1800 M⁻¹ s⁻¹
CC50 [2]: > 320 µM
EC50 [3]: 56 µM

CCOC(=O)/C=C/[C@H](CCC(N)=O)NC(=O)[C@H](Cc1ccccc1)NC(=O)[C@H](Cc1ccccc1)NC(=O)OCc1ccccc1
K obs / 1 [1]: 162000 M⁻¹ s⁻¹
CC50 [2]: > 320 µM
EC50 [3]: 0.56 µM

CCOC(=O)/C=C/[C@H](CCC(N)=O)NC(=O)[C@H](Cc1ccccc1)NC(=O)[C@H](CSc1ccccc1)NC(=O)OCc1ccccc1
K obs / 1 [1]: 141000 M⁻¹ s⁻¹
CC50 [2]: > 320 µM
EC50 [3]: 0.12 µM

CCOC(=O)/C=C/[C@H](CCC(N)=O)NC(=O)[C@H](Cc1ccccc1)NC(=O)[C@H](CCN1CCOCC1)NC(=O)OCc1ccccc1
K obs / 1 [1]: 35000 M⁻¹ s⁻¹
CC50 [2]: > 100 µM
EC50 [3]: 5.1 µM

CCOC(=O)/C=C/[C@H](CCC(N)=O)NC(=O)[C@H](Cc1ccccc1)NC(=O)[C@H](CC1CCCCC1)NC(=O)OCc1ccccc1
K obs / 1 [1]: 39000 M⁻¹ s⁻¹
CC50 [2]: > 320 µM
EC50 [3]: 1.2 µM

CCOC(=O)/C=C/[C@H](CCC(=O)NC)NC(=O)[C@H](Cc1ccccc1)NC(=O)[C@H](CC(C)C)NC(=O)OCc1ccccc1
K obs / 1 [1]: 750 M⁻¹ s⁻¹
CC50 [2]: > 100 µM
EC50 [3]: 5.6 µM

CCOC(=O)/C=C/[C@H](CCC(N)=O)NC(=O)[C@H](Cc1ccc(C#N)cc1)NC(=O)[C@H](CC(C)C)NC(=O)OCc1ccccc1
K obs / 1 [1]: 10800 M⁻¹ s⁻¹
CC50 [2]: > 320 µM
EC50 [3]: 5.6 µM

CCOC(=O)/C=C/[C@H](CCC(N)=O)NC(=O)[C@H](Cc1ccccc1)NC(=O)[C@H](CC(C)C)NC(=O)c1ccc(Oc2ccccc2)cc1
K obs / 1 [1]: 8000 M⁻¹ s⁻¹
CC50 [2]: > 320 µM
EC50 [3]: 5.2 µM

CCOC(=O)/C=C/[C@H](CCC(N)=O)NC(=O)[C@H](Cc1ccccc1)NC(=O)[C@@H](NC(=O)OCc1ccccc1)[C@H](C)SC(C)C
K obs / 1 [1]: 40000 M⁻¹ s⁻¹
CC50 [2]: > 100 µM
EC50 [3]: 10 µM

CCOC(=O)/C=C/[C@H](CCC(N)=O)NC(=O)[C@H](Cc1ccccc1)NC(=O)[C@H](CC(C)C)NC(=O)c1ccc2ccccc2c1
K obs / 1 [1]: 21000 M⁻¹ s⁻¹
CC50 [2]: > 320 µM
EC50 [3]: 1 µM

CCOC(=O)/C=C/[C@H](CCC(N)=O)NC(=O)[C@H](Cc1ccccc1)NC(=O)[C@H](CC(=O)N(C)C)NC(=O)OCc1ccccc1
K obs / 1 [1]: 22600 M⁻¹ s⁻¹
CC50 [2]: > 320 µM
EC50 [3]: 5.9 µM

CCOC(=O)/C=C/[C@H](CCC(N)=O)NC(=O)[C@H](Cc1ccccc1)NC(=O)[C@@H](NC(=O)OCc1ccccc1)C(C)(C)O
K obs / 1 [1]: 98000 M⁻¹ s⁻¹
CC50 [2]: > 100 µM
EC50 [3]: 0.66 µM

CCOC(=O)/C=C/[C@H](CCC(N)=O)NC(=O)[C@H](Cc1ccccc1)NC(=O)[C@H](CCCN1CCOCC1)NC(=O)OCc1ccccc1
K obs / 1 [1]: 43300 M⁻¹ s⁻¹
CC50 [2]: > 100 µM
EC50 [3]: 7.1 µM

CCOC(=O)/C=C/[C@H](CCC(N)=O)NC(=O)[C@H](Cc1ccccc1)NC(=O)[C@H](CC(C)C)NC(=O)N(C)Cc1ccccc1
K obs / 1 [1]: 3200 M⁻¹ s⁻¹
CC50 [2]: > 100 µM
EC50 [3]: 5.6 µM

CCOC(=O)/C=C/[C@H](CC[S+](C)[O-])NC(=O)[C@H](Cc1ccccc1)NC(=O)[C@H](CC(C)C)NC(=O)OCc1ccccc1 (stereo partly specified)
K obs / 1 [1]: 2200 M⁻¹ s⁻¹
CC50 [2]: > 100 µM
EC50 [3]: 1.6 µM

CCOC(=O)/C=C/[C@H](CCS(C)(=O)=O)NC(=O)[C@H](Cc1ccccc1)NC(=O)[C@H](CC(C)C)NC(=O)OCc1ccccc1
K obs / 1 [1]: 60 M⁻¹ s⁻¹
CC50 [2]: > 100 µM
EC50 [3]: > 100 µM

CCOC(=O)/C=C/[C@H](CCC(N)=O)NC(=O)[C@H](Cc1ccccc1)NC(=O)[C@@H](NC(=O)OCc1ccccc1)C(C)(C)C
K obs / 1 [1]: 39800 M⁻¹ s⁻¹
CC50 [2]: 178 µM
EC50 [3]: 0.32 µM

CCOC(=O)/C=C/[C@H](CCC(N)=O)NC(=O)[C@H](Cc1ccccc1)NC(=O)[C@H](CC(C)C)NC(=O)SC1CCCC1
K obs / 1 [1]: 114000 M⁻¹ s⁻¹
CC50 [2]: > 100 µM
EC50 [3]: 0.18 µM

CCOC(=O)/C=C/[C@H](CCC(N)=O)NC(=O)[C@H](Cc1ccccc1)NC(=O)[C@H](CC(C)C)NC(=O)OCc1ccncc1
K obs / 1 [1]: 12000 M⁻¹ s⁻¹
CC50 [2]: > 320 µM
EC50 [3]: 56 µM

CCOC(=O)/C=C/[C@H](CCC(N)=O)NC(=O)[C@H](CSC)NC(=O)[C@H](CC(C)C)NC(=O)OCc1ccccc1
K obs / 1 [1]: 2900 M⁻¹ s⁻¹
CC50 [2]: > 320 µM
EC50 [3]: 8.9 µM

CCOC(=O)/C=C/[C@H](CCC(N)=O)NC(=O)[C@H](Cc1ccccc1)NC(=O)[C@H](CC(C)C)NC(=O)[C@H](C)NC(C)=O
K obs / 1 [1]: 43400 M⁻¹ s⁻¹
CC50 [2]: > 100 µM
EC50 [3]: 20 µM

CCOC(=O)/C=C/[C@H](CCC(N)=O)NC(=O)[C@H](Cc1ncc[nH]1)NC(=O)[C@H](CC(C)C)NC(=O)OCc1ccccc1
K obs / 1 [1]: 6800 M⁻¹ s⁻¹
CC50 [2]: > 320 µM
EC50 [3]: 27 µM

CCOC(=O)/C=C/[C@H](CCC(N)=O)NC(=O)[C@H](Cc1ccccc1)NC(=O)[C@H](CC(C)C)NC(=O)OCc1ccccc1Cl
K obs / 1 [1]: 19000 M⁻¹ s⁻¹
CC50 [2]: > 100 µM
EC50 [3]: 0.63 µM

CCOC(=O)/C=C/[C@H](CCC(N)=O)NC(=O)[C@H](CC)NC(=O)[C@H](CC(C)C)NC(=O)OCc1ccccc1
K obs / 1 [1]: 4500 M⁻¹ s⁻¹
CC50 [2]: > 320 µM
EC50 [3]: 6 µM
